US20190292243A1, “PEPTIDES AND METHODS OF USE THEREOF” (Fred Hutchinson Cancer Research Center, priority 2016, published 2019)
Like-named read-outs stand apart in the source and are kept apart here. Marks after values point to notes of the source that are not given here. Bridge positions count the residues as written; N and C are the ends. Ends that are not written are not given here. Peptide text beside a SMILES is read from it. * marks the point of attachment. Me2Gly = CN(C)CC(=O)*

How the values were obtained:
[1] = Experimental: (§1) This example describes analysis of the pharmacokinetics of a peptide of the disclosure. A ^14C radiolabeled peptide of SEQ ID NO: 15 (SEQ ID NO: 15-r) was administered to 6-10 week old female Harlan athymic mice at a dose of 2 μCi/33 nmol via intravenous administration, intraperitoneal administration, oral administration or subcutaneous administration. At each time point, urine was collected by massaging the abdomen and mice were subsequently euthanized by CO2 asphyxiation. Blood was collected by cardiac exsanguination following cessation of respiratory movement. Plasma was separated by centrifugation and frozen until further analysis. Radioactivity in biological samples (plasma or urine) was detected by liquid scintillation counting on a Beckman Scintillation counter at a read time of 10 minutes. For HPLC evaluation, urine and plasma samples were diluted 20 μl in 80 μl and analyzed on an Agilent analytical HPLC equipped with an inline Raytest scintillation detector. Pharmacokinetics analysis was performed using the PKSolver 2 compartment IV or extravascular bolus.
HPLC was used to separate peptide fragments and liquid scintillation counting was used to quantify the radioactive signal of intact peptides or peptide fragment. SEQ ID NO: 15-r was spiked in as a positive control for intact peptide and Glycine was spiked in as a negative control for metabolized peptide. […] SEQ ID NO: 15-r was spiked in as a positive control for intact peptide and Glycine was spiked in as a negative control for metabolized peptide. […] SEQ ID NO: 15-r was spiked in as a positive control for intact peptide and Glycine was spiked in as a negative control for metabolized peptide. […] SEQ ID NO: 15-r was spiked in as a positive control for intact peptide and Glycine was spiked in as a negative control for metabolized peptide.

[2] = Pharmacokinetics of radiolabeled peptide in plasma by liquid scintillation counting (PKSolver 2 compartment); type: in vivo, female Harlan athymic nude mice; parameters: AUC0-inf (area under the curve): unit not given here; conditions: 2 μCi/33 nmol
[3] = remark: listed apart in the source
Experimental: as §1
SEQ ID NO: 15-r was spiked in as a positive control for intact peptide and Glycine was spiked in as a negative control for metabolized peptide. […] HPLC was used to separate peptide fragments and liquid scintillation counting was used to quantify the radioactive signal of intact peptides or peptide fragment. […] SEQ ID NO: 15-r was spiked in as a positive control for intact peptide and Glycine was spiked in as a negative control for metabolized peptide. […] SEQ ID NO: 15-r was spiked in as a positive control for intact peptide and Glycine was spiked in as a negative control for metabolized peptide. […] SEQ ID NO: 15-r was spiked in as a positive control for intact peptide and Glycine was spiked in as a negative control for metabolized peptide.

HeLa cells = assay: Uptake of peptide-AF647 conjugate in HeLa cells (fluorescence microscopy, flow cytometry, endocytosis inhibitors); type: cell-based; conditions: for effect of endocytic inhibitors on uptake of SEQ ID NO: 15-A: SEQ ID NO: 15-A at 4 μM, flow cytometry, pre-treatment of HeLa cells
Experimental: SEQ ID NO: 15-A and HIV-Tat-FITC, an HIV-Tat protein conjugated to a FITC fluorophore, were each dosed in HeLa cells at a concentration of 20 μM. The fluorescence image was taken on a Nikon Live microscope at 40× magnification, four hours after cells were dosed with SEQ ID NO: 15-A and HIV-Tat-FITC. The green fluorescence (FITC) and the red fluorescence (AF647) were located in different punctate regions, showing that the two molecules are localized in different vesicles.
Fluorescence was measured via flow cytometry and quantified to determine uptake of the peptide conjugate in cells.
SEQ ID NO: 15-A was dosed at a concentration of […] HIV-Tat-FITC was dosed at a concentration of 1 mM, and Dextran-Texas Red was dosed at a concentration of 25 mg/ml.

[4] = Folding of manufactured peptide variants (HPLC traces); type: physicochemical
From the text: Generally, the NMR solution structures of related structural homologs can be used to inform mutational strategies that may improve the folding, stability, manufacturability, while maintaining a particular biological function. They can be used to predict the 3D pharmacophore of a group of structurally homologous scaffolds, as wells as to predict possible graft regions of related proteins to create chimeras with improved properties. The general strategy for producing homologs can include identification of a charged surface patch of a protein, mutation of critical amino acid positions and loops, and testing of sequences. This strategy can be used to design peptides with improved properties or to correct deleterious mutations that complicate folding and manufacturability. […] Accordingly, three amino acid positions (R11, R13, and R31) were chosen to be individually mutated to improve stability, yielding peptides of SEQ ID NO: 18, SEQ ID NO: 20, and SEQ ID NO: 25.
This example illustrates the modification of a function of a peptide. A peptide of SEQ ID NO: 15 was modified at positively charge patches to give a peptide of SEQ ID NO: 1 and a peptide of SEQ ID NO: 2. The modified peptides were expressed recombinantly. Mutations at positively charged patches of a peptide of SEQ ID NO: 15 were not well tolerated as indicated by the lack of folding purity indicated by the HPLC traces in FIG. 15.

[5] = IP, 3 hr, 0 = no intact peptide was measured

CC(C)C[C@@H]1NC(=O)[C@H]([C@@H](C)O)NC(=O)[C@@H]2CSSC[C@@H]3NC(=O)[C@H]([C@@H](C)O)NC(=O)[C@H](CC(N)=O)NC(=O)[C@H](CSSC[C@@H](C(=O)N4CCC[C@H]4C(=O)N[C@@H](CC(N)=O)C(=O)N[C@@H](CCC(N)=O)C(=O)O)NC(=O)[C@H](C)NC(=O)[C@H](CCCNC(=N)N)NC1=O)NC(=O)[C@H](CCCNC(=N)N)NC(=O)[C@H](CC(=O)O)NC(=O)[C@H](CCCNC(=N)N)NC(=O)[C@H](Cc1ccccc1)NC(=O)[C@H]([C@@H](C)O)NC(=O)[C@H](CCCNC(=N)N)NC(=O)CNC(=O)[C@@H]1CCCN1C(=O)[C@H](CCC(=O)O)NC(=O)[C@@H](NC(=O)[C@H](CO)NC(=O)[C@H](CO)NC(=O)CN(C)C)CSSC[C@H](NC(=O)[C@H](CCCNC(=N)N)NC3=O)C(=O)NCC(=O)N[C@@H](C)C(=O)N[C@@H](CC(=O)O)C(=O)NCC(=O)N[C@@H](CCCNC(=N)N)C(=O)N[C@@H](CO)C(=O)N[C@@H](C)C(=O)N[C@@H](C)C(=O)N2 [SEQ ID NO: 15-r] (Me2Gly-SSCEPGRTFRDRCNTCRCGADGRSAACTLRACPNQ-OH; disulfide 3-18, 13-32, 16-27 (inferred); N-terminus and C-terminus assumed)
percentage of AUC of intact peptide of the total radioactive signal (total AUC) in plasma ([1]; IP, 5 min): 94% | percentage of AUC of intact peptide of the total radioactive signal (total AUC) in plasma ([1]; IP, 30 min): 100% | percentage of AUC of intact peptide of the total radioactive signal (total AUC) in plasma ([1]; IP, 1 hr): 66% | percentage of AUC of intact peptide of the total radioactive signal (total AUC) in plasma [1, 5]: 0% | percentage of AUC of intact peptide of the total radioactive signal (total AUC) in plasma ([1]; IV, 5 min): 92% | percentage of AUC of intact peptide of the total radioactive signal (total AUC) in plasma ([1]; IV, 30 min): 100% | percentage of AUC of intact peptide of the total radioactive signal (total AUC) in plasma ([1]; PO, 8 hr): 45% | percentage of AUC of intact peptide of the total radioactive signal (total AUC) in plasma ([1]; SC, 5 min): 100% | percentage of AUC of intact peptide of the total radioactive signal (total AUC) in plasma ([1]; SC, 30 min): 88% | percentage of AUC of intact peptide of the total radioactive signal (total AUC) in plasma ([1]; SC, 1 hr): 50% | time by which intact peptide signal in plasma reached baseline ([1]; intraperitoneal injection): ≤ 3 h | time by which intact peptide signal in plasma reached baseline ([1]; intravenous injection): ≤ 3 h | intact peptide or breakdown products observed in plasma ([1]; oral administration): neither intact peptide or breakdown products of the peptide were observed in plasma | AUC0-inf (area under the curve) ([2]; IP): 25.59 | CL/F (drug clearance over time) ([2]; IP): 1.28 nmol/(pmol/μl)/h | Cmax (peak drug concentration) ([2]; IP): 5.23 pmol/µL | AUC0-inf (area under the curve) ([2]; IV): 19.08 | CL/F (drug clearance over time) ([2]; IV): 1.73 nmol/(pmol/μl)/h | Cmax (peak drug concentration) ([2]; IV): 33* pmol/μl | AUC0-inf (area under the curve) ([2]; Oral): 46 | CL/F (drug clearance over time) ([2]; Oral): 0.53 nmol/(pmol/μl)/h | Cmax (peak drug concentration) ([2]; Oral): 0.59 pmol/µL | AUC0-inf (area under the curve) ([2]; SC): 171 | CL/F (drug clearance over time) ([2]; SC): 0.144 nmol/(pmol/μl)/h | Cmax (peak drug concentration) ([2]; SC): 8.57 pmol/µL | percentage of AUC of intact peptide of the total radioactive signal (total AUC) in urine ([3]; IP, 5 min): 60% | percentage of AUC of intact peptide of the total radioactive signal (total AUC) in urine ([3]; IP, 30 min): 49% | percentage of AUC of intact peptide of the total radioactive signal (total AUC) in urine [3, 5]: 0% | percentage of AUC of intact peptide of the total radioactive signal (total AUC) in urine ([3]; IP, 24 hr, 0 = no intact peptide was measured): 0% | percentage of AUC of intact peptide of the total radioactive signal (total AUC) in urine ([3]; IP, 48 hr, 0 = no intact peptide was measured): 0% | percentage of AUC of intact peptide of the total radioactive signal (total AUC) in urine ([3]; IV, 5 min): 77% | percentage of AUC of intact peptide of the total radioactive signal (total AUC) in urine ([3]; IV, 30 min): 47% | percentage of AUC of intact peptide of the total radioactive signal (total AUC) in urine ([3]; IV, 1 hr): 43% | percentage of AUC of intact peptide of the total radioactive signal (total AUC) in urine ([3]; IV, 3 hr, 0 = no intact peptide was measured): 0% | percentage of AUC of intact peptide of the total radioactive signal (total AUC) in urine ([3]; IV, 8 hr, 0 = no intact peptide was measured): 0% | percentage of AUC of intact peptide of the total radioactive signal (total AUC) in urine ([3]; IV, 24 hr, 0 = no intact peptide was measured): 0% | percentage of AUC of intact peptide of the total radioactive signal (total AUC) in urine ([3]; PO, 3 hr, 0 = no intact peptide was measured): 0% | percentage of AUC of intact peptide of the total radioactive signal (total AUC) in urine ([3]; PO, 8 hr, 0 = no intact peptide was measured): 0% | percentage of AUC of intact peptide of the total radioactive signal (total AUC) in urine ([3]; PO, 48 hr, 0 = no intact peptide was measured): 0% | percentage of AUC of intact peptide of the total radioactive signal (total AUC) in urine ([3]; SC, 5 min, 0 = no intact peptide was measured): 0% | percentage of AUC of intact peptide of the total radioactive signal (total AUC) in urine ([3]; SC, 30 min, 0 = no intact peptide was measured): 0% | percentage of AUC of intact peptide of the total radioactive signal (total AUC) in urine ([3]; SC, 1 hr, 0 = no intact peptide was measured): 0% | percentage of AUC of intact peptide of the total radioactive signal (total AUC) in urine ([3]; SC, 8 hr, 0 = no intact peptide was measured): 0% | percentage of AUC of intact peptide of the total radioactive signal (total AUC) in urine ([3]; SC, 48 hr, 0 = no intact peptide was measured): 0% | time by which intact peptide in urine dropped to baseline ([3]; intraperitoneal injection): ≤ 3 h | time by which intact peptide signal in urine reached baseline ([3]; intravenous injection): ≤ 3 h | intact peptide observed in urine ([3]; oral administration): intact peptide was not observed in urine | intact peptide observed in urine ([3]; subcutaneous administration): intact peptide was not observed in urine

CCCCC[C@@H](O)[C@H]1C(=O)O[C@H](C)[C@@H](O)/C=C/C=C/C=C/C=C/C=C(\C)[C@@H](O)C[C@H](O)C[C@H](O)C[C@H](O)C[C@H](O)C[C@H](O)C[C@@H]1O [filipin]
effect of endocytic inhibitors on uptake of SEQ ID NO: 15-A (HeLa cells): inhibit the uptake of SEQ ID NO: 15-A

GSSCEPGRTFADACNTCRCGADGRSAACTLAACPNQ [SEQ ID NO: 2]
folding of the manufactured peptide [4]: unable to fold

GSSCEPGRTFEDECNTCRCGADGRSAACTLEACPNQ [SEQ ID NO: 1]
folding of the manufactured peptide [4]: unable to fold

GSSCEPGRTFEDRCNTCRCGADGRSAACTLRACPNQ [SEQ ID NO: 18]
folding of the manufactured peptide [4]: Improved folding

GSSCEPGRTFRDECNTCRCGADGRSAACTLRACPNQ [SEQ ID NO: 20]
folding of the manufactured peptide [4]: Improved folding

GSSCEPGRTFRDRCNTCRCGADGRSAACTLEACPNQ [SEQ ID NO: 25]
folding of the manufactured peptide [4]: Improved folding

SEQ ID NO: 15-A (GSSCEPGRTFRDRCNTCRCGADGRSAACTLRACPNQ; cysteine pairing not given here; also: conjugate A)
internalization by HeLa cells (fluorescence image) (HeLa cells; 20 μM, four hours after dosing, 40×): internalized by HeLa cells

methyl-beta-cyclodextrin [methyl-beta-cyclodextrin (MBCD)]
inhibition of uptake of SEQ ID NO: 15-A relative to dextran and HIV-Tat (HeLa cells; 2 mM MBCD pre-treatment of HeLa cells): inhibits uptake of SEQ ID NO: 15-A to a greater extent than dextran, a fluid-phase marker, or HIV-Tat | effect of endocytic inhibitors on uptake of SEQ ID NO: 15-A (HeLa cells): inhibit the uptake of SEQ ID NO: 15-A
